Patent US20090214459A1, “METHOD OF USING CERTAIN CATIONIC POLYMERS AS ANTIOXIDANTS OR FREE-RADICAL SCAVENGERS” (priority 2008, published 2009)

Test system: HaCaT keratinocytes exposed to UVA
Assay: Antioxidant/free-radical scavenging activity with respect to UVA oxidative stress induced on keratinocytes (DCFH-DA fluorescent probe)
Assay type: cell-based
Conditions: 30 μM, 24 hours pre-incubation, UVA 2 J/cm^2, DCF fluorescence
Protocol: Method for Evaluating the Antioxidant/Free-Radical Scavenging Activity of the Polymers of the Invention with Respect to a UVA Oxidative Stress Induced on Keratinocytes
The technique for evaluating the photoprotection was carried out according to a well-known method (J. of Photochemistry and Photobiology B: Biology 57 (2000) 102-112 TOBI et al: Glutathione modulates the level of free radicals produced in UVA irradiated cells). This technique used a fluorescent probe, a marker for intracellular global oxidative stress, 2′-7′-dichlorofluorescin diacetate (DCFH-DA).
The use of DCFH-DA as a marker of the oxidative stress rests on its physicochemical properties. It is an apolar and non-ionic molecule capable of diffusing through cell membranes. Once inside the cell, DCFH-DA will be hydrolysed by intracellular esterases to a non-fluorescent compound: DCFH or 2,7-dichlorofluorescin. In the presence of activated oxygen species, DCFH is rapidly oxidized to a highly fluorescent compound: DCF or 2,7-dichlorofluorescein.
Three compounds were tested: hexadimethrine chloride (MEXOMERE PO from Chimex corresponding to a polycondensate of formula (I)), citric acid and glycine (0.0001% w/v for the MEXOMERE PO, 30 μM for the citric acid and the glycine). […]
The fluorescence of DCF was evaluated immediately after the exposure to UVA, by spectrofluorimetry (excitation: 480 nm; emission: 530 nm).

Compound | level of protection (antioxidant efficacy with respect to UVA oxidative stress)
NCC(=O)O [glycine] | ~15%
O=C(O)CC(O)(CC(=O)O)C(=O)O [Citric acid, citric acid] | ~18%
